From patent publication US12419976B2, “Hybrid tracers for targeted cancer imaging and treatment” (ACADEMISCH ZIEKENHUIS LEIDEN (H.O.D.N. LUMC), priority 2018, dated 2025)
Values joined by “and” are separate entries in the source; they are usually repeats but may differ in a detail not shown here. Identical values can stand only once. Where a SMILES comes first, the peptide text is derived from it. [ ]: non-standard residue; d: D form. The star is where a group is joined. X1 = O=C(O)CC[C@H](NC(=O)N[C@@H](CCCCNC(=O)CCCCCCC(=O)*)C(=O)O)C(=O)O; d2Nal = N[C@H](Cc1ccc2ccccc2c1)C(=O)O; Mercaptoacetyl = O=C(CS)*

Key:
[1] = target: T1, PSMA (Homo sapiens, UniProt Q04609); test: Competitive binding assay, LNCaP cells, EuK[125I]I-BA radioligand; settings: for IC50: human LNCaP cells, EuK[125I]I-BA competitive radioligand, n ≥ 3, read-out: IC50 (PSMA affinity)
T1 construct: endogenous in cells; host or cells: LNCaP cells
T1 sequence (Q04609 whole entry): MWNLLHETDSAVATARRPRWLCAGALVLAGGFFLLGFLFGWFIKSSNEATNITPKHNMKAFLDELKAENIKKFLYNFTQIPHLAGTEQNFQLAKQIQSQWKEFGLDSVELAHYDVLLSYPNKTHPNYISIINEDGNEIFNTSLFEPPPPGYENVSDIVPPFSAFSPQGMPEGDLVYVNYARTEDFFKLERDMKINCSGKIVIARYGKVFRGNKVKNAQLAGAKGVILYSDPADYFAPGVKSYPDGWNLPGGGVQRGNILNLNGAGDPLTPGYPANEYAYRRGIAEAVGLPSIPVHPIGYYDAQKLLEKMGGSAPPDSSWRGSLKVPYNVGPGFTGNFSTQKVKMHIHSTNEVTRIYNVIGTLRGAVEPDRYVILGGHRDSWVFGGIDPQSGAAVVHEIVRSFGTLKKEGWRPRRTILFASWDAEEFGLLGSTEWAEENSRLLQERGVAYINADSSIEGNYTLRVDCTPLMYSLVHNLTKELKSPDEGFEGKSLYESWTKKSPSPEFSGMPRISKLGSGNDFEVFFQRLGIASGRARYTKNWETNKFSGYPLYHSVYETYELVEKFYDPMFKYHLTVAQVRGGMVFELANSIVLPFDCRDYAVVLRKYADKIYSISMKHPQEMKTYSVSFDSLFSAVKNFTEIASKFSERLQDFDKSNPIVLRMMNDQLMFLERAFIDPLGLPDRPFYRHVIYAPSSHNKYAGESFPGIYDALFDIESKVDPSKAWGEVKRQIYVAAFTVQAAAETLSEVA
Procedure: (§1) Fluoresence confocal microscopy was utilised as a tool for receptor localisation. As depicted in FIG. 3, a typical PSMA-targeting tracer brightly stains the extracellular receptor. IC50 was determined in a competitive binding assay using human LNCaP cells and EuK[^125I]I-BA as competitive radioligand.

[2] = Lipophilicity logP(o/w) of 99mTc-labeled hybrid tracers; type: physicochemical; settings: octanol/water, n = 6
[3] = Stability in serum at 37° C., absorbance and fluorescence after 24 h; type: in vitro ADME; settings: for Serum stability after 24 h, remaining absorbance / Serum stability after 24 h, remaining fluorescence: n = 2
Procedure: Not only serum binding, but also the stability in serum is valuable. This characteristic is another brick in the wall for the preclinical evaluation of hybrid tracers since this indicates a compound's in vivo stability. Clearly, any compound degrading in an in vivo environment is not suited for clinical use. All hybrid tracers were incubated in serum at 37° C. and their absorbance and fluorescence were measured after 24 h.

[4] = target: serum albumin (Homo sapiens, UniProt P02768); test: Plasma protein binding (serum binding); type: in vitro ADME; settings: for Plasma protein binding (PPB): FIG. 2A; for fraction unbound: serum albumin, n = 3 (Table 3)
serum albumin, sequence (P02768 25-609): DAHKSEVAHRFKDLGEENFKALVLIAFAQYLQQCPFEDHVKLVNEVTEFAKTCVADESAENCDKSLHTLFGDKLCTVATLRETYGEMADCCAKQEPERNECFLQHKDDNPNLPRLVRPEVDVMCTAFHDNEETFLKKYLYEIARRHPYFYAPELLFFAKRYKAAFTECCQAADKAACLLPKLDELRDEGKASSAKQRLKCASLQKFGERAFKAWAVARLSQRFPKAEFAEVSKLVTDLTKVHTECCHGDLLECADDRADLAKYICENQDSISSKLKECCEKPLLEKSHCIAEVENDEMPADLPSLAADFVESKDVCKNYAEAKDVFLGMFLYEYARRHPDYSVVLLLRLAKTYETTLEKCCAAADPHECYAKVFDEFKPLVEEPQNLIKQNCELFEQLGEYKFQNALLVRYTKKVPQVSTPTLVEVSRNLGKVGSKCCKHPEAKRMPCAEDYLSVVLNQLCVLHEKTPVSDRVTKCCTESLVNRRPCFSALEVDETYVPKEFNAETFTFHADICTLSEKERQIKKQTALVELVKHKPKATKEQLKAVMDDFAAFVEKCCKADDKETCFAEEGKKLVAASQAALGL
Text: FIG. 2 illustrates the results for plasma protein interaction assays for exemplary hybrid tracer compounds. A) Plasma protein binding as a percentage of the indicated hybrid tracers bound to serum albumin. All hybrid tracers portray significant differences (p<0.05) except when noted (ns).
Serum binding, or rather plasma protein binding (PPB) is a useful pharmacokinetic characteristic for the initial assessment of tracer candidates prior to in vivo use as PPB is directly related to, e.g., blood retention and clearance rates. All hybrid tracers have PPB with values between 52-89% with an average of 76±12% (FIG. 2A). The benzo[e]indole-containing hybrid tracers (EuK(Ar)-Cy5-MAS3, EuK-Cy5-(Ar)MAS3 and EuK(Ar)Cy5-(Ar)MAS3) tend to have the highest PPB. […] This can be explained by Sudlow's site, a binding pocket in albumin's subdomain IIA, which binds bulky heterocyclic anions. No clear correlation could be found between c log D and serum binding. Even though PPB has a relation to the lipophilicity, it was expected that we could not predict the PPB based on the c log D as the PPB cannot be explained by a single physiochemical characteristic.

[5] = system: orthotopically transplanted PC346C cells; test: In vivo SPECT imaging in tumour-bearing mice; settings: tumour-bearing nude BALB/c mice, FIG. 4A
Procedure: (§2) A) In vivo SPECT imaging. Coronal SPECT imaging image of prostate tumour-bearing mice injected with either one of the PSMA hybrid tracer analogues. Organs are denoted as Lu (lungs), Li (liver), G (gallbladder), S (spleen), K (kidneys), B (bladder) and T (tumour). B) Comparison of biodistribution of the hybrid tracer matrix compared to the clinically approved tracer PSMA I&S, with C) providing the biodistribution of hybrid tracer EUK(SO3)—CY5-MAS3. Biodistribution pattern at 2 h post injection of the different hybrid tracers from the matrix compared to the reference tracer PSMA I&S depicted as percentage of the injected dose per gram tissue (% ID/g).
(§3) The in vivo characteristics were investigated in male BALB/c nude mice using orthotopically transplanted PC346C cells. These mice were analysed in various ways, i.e., in vivo nuclear imaging (SPECT) in tumour-bearing mice, in vivo optical imaging (fluorescence imaging) in tumour-bearing mice, ex vivo biodistribution (percentage injected dose per gram (% ID/g)) in healthy and tumour-bearing mice and ex vivo fluorescence imaging.

[6] = Photophysical properties of Cy5 dyes and hybrid tracers in PBS; type: physicochemical; settings: for Brightness: determined using the ε of the hybrid tracer's corresponding fluorophore
Procedure: The brightness of a dye—one of the most important photophysical characteristics in a clinical setting—is the product of its molar extinction coefficient (e) and quantum yield (ϕF). We therefore set out to determine the e of each fluorophore by creating a linear concentration range (7.5-0.25 μM) in PBS and measuring the corresponding absorbance (Table 1). The addition of a sulfonate on the carboxylic-acid-containing indoline moiety diminishes the epsilon and the use of extra aryl moieties on the cyanine backbone greatly diminishes the dyes' solvability and thus their epsilon is greatly diminished as well.
The ϕF of a fluorophore is the relation between the number of photons emitted divided by the number of photons absorbed by a single molecule. It is therefore also called the emission efficiency. […] Perhaps an asymmetrical cyanine core, with its significant electron density imbalance, is an inefficient fluorophore. In line with our expectations-since the benzo[e]indole caused J-aggregate formation, the ϕF of benzo[e]indole-containing fluorophores were diminished. […] The only trend derived from the abovementioned data is that the free fluorophore benefits (when optimising emission efficiency) from symmetrical substituents on the cyanine structure.
As the brightness of a fluorophore (or hybrid tracer) is one of its most important photophysical traits, we calculated the brightness for all fluorophores. In order to give insight in the hybrid tracer's optical performance, the brightness was determined by using the ε of its corresponding fluorophore in PBS. […] EuK(SO3)-Cy5-MAS3 thus contains the most favourable photophysical characteristics out of these 6 exemplary hybrid tracers.

[7] = system: orthotopically transplanted PC346C cells; test: Ex vivo biodistribution in tumour-bearing mice; settings: for Tumour-to-fat ratio (T/F): FIG. 5D; for Hepatic clearance: FIG. 5C, in %ID/g
Procedure: as §2
FIG. 5 illustrates biodistribution parameters and tumour uptake for exemplary hybrid tracers. Overview of A) the % Injected activity found in all excised organs percentage of the injected activity that remained at 2 h post tracer injection (all ns), B) the amount of radioactivity still present in the blood pool and C) no significant differences in hepatic clearance between the compounds. To highlight the visibility of the tumour over background tissue notorious for occluding signal within the area of the prostate, the D) tumour-to-fat and E) the tumour-to-blood ratio are provided for the individual hybrid tracers. Significance portrayed as: nothing (non-significant) *(p≤0.05) **(p≤0.01) ***(p≤0.001).
as §3

[8] = target: T1, PSMA; test: Fluorescence confocal microscopy of LNCaP cells; type: cell-based; settings: FIG. 3
Procedure: A) provides a brightfield image of incubated cells. B) provides an overlay of confocal images of incubated cells with Cy5-related signal of the PSMA-targeting tracer in red, the nucleus in blue and lysosomes in the cytoplasm in green. C) provides an overlay of the confocal and brightfield images.
as §1

With `CC(=O)SCC(=O)NC(CO)C(=O)NC(CO)C(=O)NC(CO)C(=O)NCCCCCC(=O)NCCCCN1C(=CC=CC=CC2=[N+](CCCCCC(=O)NCCCCC(NC(=O)NC(CCC(=O)O)C(=O)O)C(=O)O)c3ccccc3C2(C)C)C(C)(C)c2cc(S(=O)(=O)[O-])ccc21` (stereo not shown) [EuK-Cy5-(SO3)MAS3] the IC50 [1] was 0.119 ± 0.117 µM, the logP [2] was -2.7 ± 0.01 and the “Serum stability after 24 h, remaining absorbance” value [3] was 82 ± 7 % remaining. For the same compound, the “Serum stability after 24 h, remaining fluorescence” value [3] was 85 ± 1 % remaining, the “Plasma protein binding (PPB)” value [4] was “significantly higher than the PPB of EuK-Cy5-MAS3” and the fraction unbound [4] was 0.126. The “Nuclear (SPECT) imaging of the tumour” value [5] was “clear nuclear imaging of the tumour”, the Stokes shift [6] was 16 nm and the “ΦF (quantum yield)” value [6] was 7%. For the same compound, the λem [6] was 664 nm, the λex [6] was 648 nm and the Brightness [6] was 10^‡ 10^3 M^−1 · cm^−1. For the same compound, the “Tumour-to-fat ratio (T/F)” value [7] was 2658±659.
In the case of `CC(=O)SCC(=O)NC(CO)C(=O)NC(CO)C(=O)NC(CO)C(=O)NCCCCCC(=O)NCCCCN1C(=CC=CC=CC2=[N+](CCCCCC(=O)NCCCCC(NC(=O)NC(CCC(=O)O)C(=O)O)C(=O)O)c3ccc(S(=O)(=O)[O-])cc3C2(C)C)C(C)(C)c2ccccc21` (stereo not shown) [EuK(SO3)-Cy5-MAS3], the IC50 [1] is reported as 0.019 µM and 0.0192 µM, the “PSMA affinity relative to EuK-Cy5(SO3)-MAS3” value ([1]; ratio of affinities) is reported as “more than 9 fold” and the logP [2] is reported as -2.86 ± 0.05. For the same compound, the “Serum stability after 24 h, remaining absorbance” value [3] was 97 ± 2 % remaining, the “Serum stability after 24 h, remaining fluorescence” value [3] was 89 ± 6 % remaining and the “Staining of LNCaP cells (confocal)” value [8] was “PSMA-related staining of LNCaP cells”. For the same compound, the “Plasma protein binding (PPB)” value [4] was “significantly higher than the PPB of EuK-Cy5-MAS3”, the fraction unbound [4] was 0.15 and the “Nuclear (SPECT) imaging of the tumour” value [5] was “clear nuclear imaging of the tumour”. The Stokes shift [6] was 16 nm, the λem [6] was 664 nm and the λex [6] was 648 nm. The Hepatic clearance [7] was 2.90±2.06 and the “Tumour-to-blood ratio (T/B)” value ([7]; FIG. 5E) was 1713.
In the case of `CC(=O)SCC(=O)NC(CO)C(=O)NC(CO)C(=O)NC(CO)C(=O)NCCCCCC(=O)NCCCCN1C(=CC=CC=CC2=[N+](CCCCCC(=O)NCCCCC(NC(=O)NC(CCC(=O)O)C(=O)O)C(=O)O)c3ccccc3C2(C)C)C(C)(C)c2ccccc21` (stereo not shown) [EuK-Cy5-MAS3], the IC50 [1] is reported as 0.175 ± 0.0616 µM, the logP [2] is reported as -2.13 ± 0.1 and the “Serum stability after 24 h, remaining absorbance” value [3] is reported as 80 ± 6 % remaining. The “Serum stability after 24 h, remaining fluorescence” value [3] was 86 ± 5 % remaining, the fraction unbound [4] was 0.117 and the Stokes shift [6] was 18 nm. For the same compound, the “ΦF (quantum yield)” value [6] was 16%, the λem [6] was 663 nm and the λex [6] was 644 nm. The Hepatic clearance [7] was 19.93±13.44 and the “Tumour-to-fat ratio (T/F)” value [7] was 2542±287.
For `CC(=O)SCC(=O)NC(CO)C(=O)NC(CO)C(=O)NC(CO)C(=O)NCCCCCC(=O)NCCCCN1C(=CC=CC=CC2=[N+](CCCCCC(=O)NCCCCC(NC(=O)NC(CCC(=O)O)C(=O)O)C(=O)O)c3ccc4ccccc4c3C2(C)C)C(C)(C)c2ccccc21` (stereo not shown) [EuK(Ar)-Cy5-MAS3], the IC50 [1] was 0.113 ± 0.0359 µM, the logP [2] was -1.75 ± 0.1 and the “Serum stability after 24 h, remaining absorbance” value [3] was 85 ± 3 % remaining. For the same compound, the “Serum stability after 24 h, remaining fluorescence” value [3] was 79 ± 1 % remaining, the “Plasma protein binding (PPB)” value [4] was “highest PPB” and the fraction unbound [4] was 0.093. For the same compound, the Stokes shift [6] was 18 nm, the “ΦF (quantum yield)” value [6] was 9% and the λem [6] was 682 nm. The λex [6] was 664 nm, the Brightness [6] was 3^‡ 10^3 M^−1 · cm^−1 and the Blood retention ([7]; 2 h post injection, FIG. 5B) was 6.91±1.08 ID/g. The Hepatic clearance [7] was 0.94±0.13 and 1.10±0.14.
With `CC(=O)SCC(=O)NC(CO)C(=O)NC(CO)C(=O)NC(CO)C(=O)NCCCCCC(=O)NCCCCN1C(=CC=CC=CC2=[N+](CCCCCC(=O)NCCCCC(NC(=O)NC(CCC(=O)O)C(=O)O)C(=O)O)c3ccccc3C2(C)C)C(C)(C)c2c1ccc1ccccc21` (stereo not shown) [EuK-Cy5-(Ar)MAS3] the IC50 [1] was 0.164 ± 0.0769 µM, the logP [2] was -1.84 ± 0.06 and the “Serum stability after 24 h, remaining absorbance” value [3] was 75 ± 0 % remaining. For the same compound, the “Serum stability after 24 h, remaining fluorescence” value [3] was 76 ± 0 % remaining, the “Plasma protein binding (PPB)” value [4] was “highest PPB” and the fraction unbound [4] was 0.11. The Stokes shift [6] was 17 nm, the “ΦF (quantum yield)” value [6] was 9% and the λem [6] was 680 nm. The λex [6] was 663 nm and the Brightness [6] was 5^‡ 10^3 M^−1 · cm^−1.
Compound `O=C(O)CC[C@H](NC(=O)N[C@@H](CCCCNC(=O)CCCCCCC(=O)NCCCC[C@@H](NC(=O)[C@@H](Cc1ccc2ccccc2c1)NC(=O)[C@@H](Cc1ccc(O)cc1)NC(=O)[C@@H](CO)NC(=O)[C@@H](CO)NC(=O)[C@@H](CO)NC(=O)CS)C(=O)O)C(=O)O)C(=O)O` [PSMA I&S, reference compound] (Mercaptoacetyl-[dS][dS][dS][dY][d2Nal][dK](X1)-OH) has a Kidney accumulation ([7]; biodistribution 2 h post injection) of 186.0±23.0 ID/g.
For `CC(=O)SCC(=O)NC(CO)C(=O)NC(CO)C(=O)NC(CO)C(=O)NCCCCCC(=O)NCCCCN1C(=CC=CC=CC2=[N+](CCCCCC(=O)NCCCCC(NC(=O)NC(CCC(=O)O)C(=O)O)C(=O)O)c3ccc4ccccc4c3C2(C)C)C(C)(C)c2c1ccc1ccccc21` (stereo not shown) [EuK(Ar)-Cy5-(Ar)MAS3], the IC50 [1] was 0.345 µM, the “Serum stability (comparison between tracers)” value ([3]; p<0.05) was “significantly lower serum stability” and the “Plasma protein binding (PPB)” value [4] was “highest PPB”. For the same compound, the “Nuclear (SPECT) imaging of the tumour” value [5] was “clear nuclear imaging of the tumour”, the Stokes shift [6] was 18 nm and the “ΦF (quantum yield)” value [6] was 14%. For the same compound, the λem [6] was 700 nm, the λex [6] was 682 nm and the Brightness [6] was 7^‡ 10^3 M^−1 · cm^−1. The Hepatic clearance [7] was 0.87±0.66.
